Assay results: patent US20260216152A1, “Combinations Comprising Benzodioxol as GLP-1R Agonists for Use in the Treatment of NASH/NAFLD and Related Diseases” (Pfizer Inc., priority 2019, published 2026)

Assays:
[1] = Western diet fed Sprague Dawley rats, ACCi and DGAT2i as monotherapy and in combination (FIG. 10-18); format: in vivo
Description: (§1) It appears that the administration of an ACC inhibitor may have positive effects to lower hepatic TGs and potentially other beneficial effects on treatment of NASH.

rat ACC isozymes = assay: Inhibition of rat ACC isozymes, incorporation of [14C]-carbonate into [14C]-malonyl-CoA; format: biochemical; conditions: saturating concentrations of ATP
liver malonyl-CoA = assay: Liver malonyl-CoA in rats; format: in vivo
human ACC isozymes = assay: Inhibition of human ACC isozymes, incorporation of [14C]-carbonate into [14C]-malonyl-CoA; format: biochemical; conditions: saturating concentrations of ATP
in vivo [2] = conditions: rat
hepatic DNL = conditions: Phase 1 study, healthy adult subjects; cited from earlier work
[3] = Circulating TGs in human subjects; format: in vivo
Description: as §1

in vivo [4] = conditions: monkey
MGAT3 = biological target: T1, MGAT3 (Homo sapiens, UniProt Q86VF5); assay: Selectivity by biochemical assessment versus MGAT3; conditions: in vitro
T1 sequence (Q86VF5 1-341): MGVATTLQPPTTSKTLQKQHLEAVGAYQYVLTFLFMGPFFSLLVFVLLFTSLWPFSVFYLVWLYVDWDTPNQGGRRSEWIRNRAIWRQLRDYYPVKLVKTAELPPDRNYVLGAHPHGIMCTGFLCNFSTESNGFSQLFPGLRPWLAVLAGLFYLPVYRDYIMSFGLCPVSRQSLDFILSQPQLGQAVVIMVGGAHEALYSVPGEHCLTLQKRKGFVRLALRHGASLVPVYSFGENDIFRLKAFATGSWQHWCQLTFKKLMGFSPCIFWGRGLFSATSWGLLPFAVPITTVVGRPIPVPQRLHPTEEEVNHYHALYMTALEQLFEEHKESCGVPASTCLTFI
Description: (§2) (S)-2-(5-((3-ethoxypyridin-2-yl)oxy)pyridin-3-yl)-N-(tetrahydrofuran-3-yl)pyrimidine-5-carboxamide is an oral, small molecule DGAT2 inhibitor that is postulated to decrease hepatic triglyceride (TG) synthesis and hepatic lipid burden in NAFLD and NASH.

[5] = Longer-term studies in western diet fed rats; format: in vivo
Description: as §2

mouse MGAT1 = biological target: T2, mouse MGAT1 (Mus musculus, UniProt Q91ZV4); assay: Selectivity by biochemical assessment versus mouse MGAT1; conditions: in vitro
T2 sequence (Q91ZV4 1-335): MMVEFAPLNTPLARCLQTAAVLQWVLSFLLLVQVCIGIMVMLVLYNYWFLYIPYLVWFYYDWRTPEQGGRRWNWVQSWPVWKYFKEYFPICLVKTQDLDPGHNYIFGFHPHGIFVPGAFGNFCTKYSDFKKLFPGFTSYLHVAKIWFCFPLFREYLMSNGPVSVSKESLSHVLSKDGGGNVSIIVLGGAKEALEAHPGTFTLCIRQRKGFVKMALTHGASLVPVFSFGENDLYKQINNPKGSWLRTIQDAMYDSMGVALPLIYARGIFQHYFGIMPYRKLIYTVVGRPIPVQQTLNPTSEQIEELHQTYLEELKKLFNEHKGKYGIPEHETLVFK
Description: as §2

[6] = Plasma triacylglycerol in rats fed a sucrose-diet; format: in vivo
Description: as §2

[7] = biological target: monoacylglycerol acyltransferase 2 (MGAT2) (Homo sapiens, UniProt Q3SYC2); assay: Selectivity by biochemical assessment versus MGAT2; conditions: in vitro
Sequence of monoacylglycerol acyltransferase 2 (MGAT2) (Q3SYC2 whole entry): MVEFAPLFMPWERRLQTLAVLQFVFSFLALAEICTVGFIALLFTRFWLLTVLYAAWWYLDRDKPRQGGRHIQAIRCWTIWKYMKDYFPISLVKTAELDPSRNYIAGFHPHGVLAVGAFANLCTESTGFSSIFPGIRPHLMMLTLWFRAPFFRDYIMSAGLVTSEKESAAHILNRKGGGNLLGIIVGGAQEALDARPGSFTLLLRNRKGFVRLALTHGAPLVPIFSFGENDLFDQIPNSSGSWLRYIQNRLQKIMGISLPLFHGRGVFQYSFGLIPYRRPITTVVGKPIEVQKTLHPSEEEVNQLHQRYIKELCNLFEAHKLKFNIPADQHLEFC
Description: as §2

[8] = biological target: T3, recombinant human DGAT1 (hDGAT1) (Homo sapiens, UniProt O75907); assay: Selectivity by biochemical assessment versus hDGAT1; conditions: in vitro
T3 sequence (O75907 1-488): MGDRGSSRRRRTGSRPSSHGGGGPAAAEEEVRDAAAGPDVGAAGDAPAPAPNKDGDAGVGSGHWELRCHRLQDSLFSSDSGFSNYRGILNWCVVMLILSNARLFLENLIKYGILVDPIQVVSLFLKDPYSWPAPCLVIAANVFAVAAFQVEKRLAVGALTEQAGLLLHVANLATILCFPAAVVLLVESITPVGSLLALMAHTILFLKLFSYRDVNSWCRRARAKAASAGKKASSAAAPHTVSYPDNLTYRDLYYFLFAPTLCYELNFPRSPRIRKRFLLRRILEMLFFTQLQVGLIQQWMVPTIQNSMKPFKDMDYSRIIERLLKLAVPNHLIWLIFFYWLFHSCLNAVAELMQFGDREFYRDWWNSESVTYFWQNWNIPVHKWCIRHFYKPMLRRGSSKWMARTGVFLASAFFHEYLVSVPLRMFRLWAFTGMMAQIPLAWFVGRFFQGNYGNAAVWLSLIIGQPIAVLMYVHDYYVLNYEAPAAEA
Description: as §2

[9] = tested on: fructose-induced steatosis; assay: Dietary fructose-feeding model with Sprague Dawley rats; format: in vivo
Description: [(1R,5S,6R)-3-{2-[(2S)-2-methylazetidin-1-yl]-6-(trifluoromethyl)pyrimidin-4-yl}-3-azabicyclo[3.1.0]hex-6-yl]acetic acid is a potent reversible inhibitor of human KHK-C The fructose, not glucose, component of dietary sugar is unique in its ability to promote features of metabolic syndrome, including steatosis, insulin resistance, and obesity.

[10] = Thermodynamic stability of crystal forms versus water activity; format: physicochemical; conditions: ambient temperature; 0.2 = 20% RH
Protocol: Form 1 of Example ACCi is anhydrous and is thermodynamically stable below a water activity of about 0.2 (20% RH) at ambient temperature. Characteristic PXRD peaks of Form 1 of Example ACCi, expressed as 2θ+0.2° 2θ are at 9.6, 10.7, and 11.3.
Form 2 of Example ACCi is a trihydrate and is thermodynamically stable above a water activity of about 0.2 at ambient temperature and 20% RH. Characteristic PXRD peaks of Form 2 of Example ACCi, expressed as 2θ+0.2° 2θ are at 8.4, 9.0, 10.5, 15.0, and 24.7.

circulating FGF19 = assay: Circulating FGF19 levels after single and multiple doses; format: in vivo
Description: Pharmacological activation of […] has been proposed as a target for the treatment of NASH (Cariou 2008, Porez et al 2012). […] The nuclear receptor FXR, also known as the Bile Acid Receptor (BAR; NR1H4), is responsible for modulating bile acid production, conjugation, and elimination.

COc1cc(C(=O)N2CCC3(CC2)CC(=O)c2c(cnn2C(C)C)C3)cc(-c2ccc(C(=O)O)cc2)n1 [Example ACCi, 4-(4-(1-isopropyl-7-oxo-1,4,6,7-tetrahydrospiro[indazole-5,4′-piperidine]-1′-carbonyl)-6-methoxypyridin-2-yl)benzoic Acid]
circulating TGs (generally measured from plasma) [1]: elevations in circulating TGs | inhibition of incorporation of [14C]-carbonate into [14C]-malonyl-CoA (rat ACC isozymes): inhibited incorporation of [^14C]-carbonate into [^14C]-malonyl-CoA in a concentration-dependent manner | liver malonyl-CoA (liver malonyl-CoA): dose and free plasma concentration-dependent reductions in liver malonyl-CoA | inhibition of incorporation of [14C]-carbonate into [14C]-malonyl-CoA (human ACC isozymes): inhibited incorporation of [^14C]-carbonate into [^14C]-malonyl-CoA in a concentration-dependent manner | Kp (in vivo [2]): ≥ 100 | hepatic DNL (hepatic DNL): suppress hepatic DNL | circulating TGs [3]: elevations in circulating TGs | Kp (in vivo [4]): ≥ 100

CCOc1cccnc1Oc1cncc(-c2ncc(C(=O)N[C@H]3CCOC3)cn2)c1 [Example DGAT2i, (S)-2-(5-((3-ethoxypyridin-2-yl)oxy)pyridin-3-yl)-N-(tetrahydrofuran-3-yl)pyrimidine-5-carboxamide]
selectivity versus MGAT3 (MGAT3): > 2000 fold | hepatic lipid accumulation [5]: reduced | plasma triacylglycerol [5]: reduced | selectivity versus mouse MGAT1 (mouse MGAT1): > 2000 fold | plasma triacylglycerol [6]: robust, dose-dependent reduction of plasma triacylglycerol | selectivity versus MGAT2 [7]: > 2000 fold | selectivity versus hDGAT1 [8]: > 2000 fold

C[C@H]1CCN1c1nc(N2C[C@@H]3[C@@H](CC(=O)O)[C@@H]3C2)cc(C(F)(F)F)n1 [Example KHKi, [(1R,5S,6R)-3-{2-[(2S)-2-methylazetidin-1-yl]-6-(trifluoromethyl)pyrimidin-4-yl}-3-azabicyclo[3.1.0]hex-6-yl]Acetic acid]
incidence of fructose-induced steatosis [9]: reduced the incidence of fructose-induced steatosis

COc1cc(C(=O)N2CCC3(CC2)CC(=O)c2c(cnn2C(C)C)C3)cc(-c2ccc(C(=O)O)cc2)n1 [Form 1 of Example ACCi]
water activity at which the form is thermodynamically stable [10]: < 0.2

COc1cc(C(=O)N2CCC3(CC2)CC(=O)c2c(cnn2C(C)C)C3)cc(-c2ccc(C(=O)O)cc2)n1 [Form 2 of Example ACCi]
water activity at which the form is thermodynamically stable [10]: > 0.2

O=C(O)c1cc(F)c2nc(N3C4CC[C@H]3CC(OCc3c(-c5ccccc5OC(F)(F)F)noc3C3CC3)C4)sc2c1 (stereo partly drawn) [Tropifexor, 2-[(1R,3R,5S)-3-({5-cyclopropyl-3-[2-(trifluoromethoxy)phenyl]-1,2-oxazol-4-yl}methoxy)-8-azabicyclo[3.2.1]octan-8-yl]-4-fluoro-1,3-benzothiazole-6-carboxylic acid]
circulating FGF19 levels (circulating FGF19): robust, dose-dependent increase in circulating FGF19 levels
